Reference: ChEMBL document CHEMBL1201862, “PubChem BioAssay data set” (2004)
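Following 48 hours of exposure in 96-well plates, responses at five concentrations were used to interpolate endpoints linearly. Abbreviation: GI50, concentration required for 50% inhibition of growth.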 Activity calls are given as the source filed them. Rule as the data show it: active = GI50 up to about 1.1 µM and inactive = higher.

Tests used:
Assay in all cases: NCI anticancer screen, dose series, 48 h
SF-295 = test system: SF-295
A549 = test system: A549
MOLT-4 = test system: MOLT-4
RPMI-8226 = test system: RPMI-8226
NCI-H460 = test system: NCI-H460
SNB-75 = test system: SNB-75
HT-29 = test system: HT-29
PC-3 = test system: PC-3
SF-539 = test system: SF-539
MDA-MB-231 = test system: MDA-MB-231
HCT-15 = test system: HCT-15
NCI-H23 = test system: NCI-H23
MDA-MB-435 = test system: MDA-MB-435
KM12 = test system: KM12
OVCAR-3 = test system: OVCAR-3
OVCAR-5 = test system: OVCAR-5
OVCAR-4 = test system: OVCAR-4
ACHN = test system: ACHN
HL-60 = test system: HL-60
IGROV-1 = test system: IGROV-1

Row | SMILES | GI50 (SF-295) | GI50 (A549) | GI50 (MOLT-4) | GI50 (RPMI-8226) | GI50 (NCI-H460) | GI50 (SNB-75) | GI50 (HT-29) | GI50 (PC-3) | GI50 (SF-539) | GI50 (MDA-MB-231) | GI50 (HCT-15) | GI50 (NCI-H23) | GI50 (MDA-MB-435) | GI50 (KM12) | GI50 (OVCAR-3) | GI50 (OVCAR-5) | GI50 (OVCAR-4) | GI50 (ACHN) | GI50 (HL-60) | GI50 (IGROV-1)
1 | Cc1cccc(N/C(Sc2ccccc2)=C(/C(Cl)=C(Cl)Cl)[N+](=O)[O-])c1 | 17.1 µM (inactive) | 20 µM (inactive) | 21.5 µM (inactive) | 30.4 µM (inactive) | 35 µM (inactive) | 26.1 µM (inactive) | 17.6 µM (inactive) | 27 µM (inactive) | 16.4 µM (inactive) | 20.4 µM (inactive) | 15.3 µM | 20.1 µM (inactive) | 17.7 µM (inactive) | 23.1 µM (inactive) | 10 µM (inactive) | 15.1 µM (inactive) | 17.5 µM (inactive) | 26.4 µM (inactive) | – | –
2 | C#CCOC(=O)C(=[N+]=[N-])C(=O)CC(C)C | > 10 µM (inactive) | > 10 µM (inactive) | > 10 µM (inactive) | > 10 µM (inactive) | > 10 µM (inactive) | – | > 10 µM (inactive) | > 10 µM (inactive) | > 10 µM (inactive) | > 10 µM (inactive) | > 10 µM | > 10 µM (inactive) | > 10 µM (inactive) | > 10 µM (inactive) | > 10 µM (inactive) | > 10 µM (inactive) | > 10 µM (inactive) | > 10 µM (inactive) | > 10 µM (inactive) | > 10 µM (inactive)
3 | CC(=O)OC1COC(n2c(N)c(C#N)c(C)c(C#N)c2=S)C(OC(C)=O)C1OC(C)=O (stereo unspecified) | > 100 µM (inactive) | > 100 µM (inactive) | – | > 100 µM (inactive) | > 100 µM (inactive) | > 100 µM (inactive) | > 100 µM (inactive) | 76.7 µM (inactive) | > 100 µM (inactive) | > 100 µM (inactive) | > 100 µM | > 100 µM (inactive) | > 100 µM (inactive) | > 100 µM (inactive) | > 100 µM (inactive) | > 100 µM (inactive) | – | 59.6 µM (inactive) | – | > 100 µM (inactive)
4 | O=c1cc(-c2ccccc2)[nH]c2cccc(S)c12 | 0.115 µM (active) | 0.44 µM (active) | 0.37 µM (active) | 0.424 µM (active) | 0.301 µM (active) | – | 0.202 µM (active) | 0.123 µM (active) | 0.2 µM (active) | 0.455 µM (active) | 0.344 µM | 0.445 µM (active) | 0.0299 µM (active) | 0.277 µM (active) | 3.14 µM (inactive) | > 100 µM (inactive) | 4.8 µM (inactive) | 0.804 µM (active) | 0.201 µM (active) | 0.341 µM (active)
5 | CN(C)c1ccc2c3c(c(=O)oc2c1)CCC3 | 92.7 µM (inactive) | 51.3 µM (inactive) | 27.2 µM (inactive) | 37.6 µM (inactive) | 83.9 µM (inactive) | – | 44.8 µM (inactive) | 90.4 µM (inactive) | > 100 µM (inactive) | 28.7 µM (inactive) | 50.7 µM | 74 µM (inactive) | 57.9 µM (inactive) | 41.7 µM (inactive) | > 100 µM (inactive) | > 100 µM (inactive) | > 100 µM (inactive) | 58.5 µM (inactive) | 26.9 µM (inactive) | 84.1 µM (inactive)
6 | Nc1nc(Cl)c(N)c(NCC2(CO)CCC(OCc3ccccc3)C2)n1 (stereo unspecified) | 4.9 µM (inactive) | > 100 µM (inactive) | 31.7 µM (inactive) | – | > 100 µM (inactive) | > 100 µM (inactive) | > 100 µM (inactive) | > 100 µM (inactive) | > 100 µM (inactive) | > 100 µM (inactive) | 61.9 µM | > 100 µM (inactive) | 95.9 µM (inactive) | > 100 µM (inactive) | > 100 µM (inactive) | > 100 µM (inactive) | 43.4 µM (inactive) | > 100 µM (inactive) | – | > 100 µM (inactive)
7 | N#CC(O)CCOCc1ccccc1 (stereo unspecified) | > 100 µM (inactive) | > 100 µM (inactive) | 3.39 µM (inactive) | 41.7 µM (inactive) | > 100 µM (inactive) | – | 38.6 µM (inactive) | > 100 µM (inactive) | 85.3 µM (inactive) | > 100 µM (inactive) | 52.4 µM | > 100 µM (inactive) | > 100 µM (inactive) | > 100 µM (inactive) | > 100 µM (inactive) | > 100 µM (inactive) | > 100 µM (inactive) | 39.4 µM (inactive) | 34.4 µM (inactive) | > 100 µM (inactive)
8 | CCc1nnc(CC)n1NCCCC(=O)O | > 100 µM (inactive) | > 100 µM (inactive) | > 100 µM (inactive) | > 100 µM (inactive) | – | > 100 µM (inactive) | > 100 µM (inactive) | > 100 µM (inactive) | > 100 µM (inactive) | > 100 µM (inactive) | > 100 µM | > 100 µM (inactive) | > 100 µM (inactive) | > 100 µM (inactive) | > 100 µM (inactive) | > 100 µM (inactive) | > 100 µM (inactive) | > 100 µM (inactive) | – | > 100 µM (inactive)
9 | CC(C)C1=CC(=O)[C@@](C)(C2[C@H](O)C[C@@]3(C)[C@@H]4CC=C5[C@@H](CC[C@@H](OC6OCC(O)C(O)C6OC6OC(C)C(O)C(O)C6O)C5(C)C)[C@]4(C)C(=O)C[C@]23C)O1 (stereo partly specified) | 59 µM (inactive) | > 100 µM (inactive) | > 100 µM (inactive) | > 100 µM (inactive) | > 100 µM (inactive) | > 100 µM (inactive) | > 100 µM (inactive) | > 100 µM (inactive) | – | > 100 µM (inactive) | > 100 µM | > 100 µM (inactive) | > 100 µM (inactive) | > 100 µM (inactive) | > 100 µM (inactive) | > 100 µM (inactive) | > 100 µM (inactive) | > 100 µM (inactive) | – | > 100 µM (inactive)
10 | COC(=O)[C@]12CC[C@H]3CN(C(=O)OCc4ccccc4)[C@H]([C@H]31)[C@H](c1ccco1)N2 | 32.1 µM (inactive) | 37.2 µM (inactive) | 19.8 µM (inactive) | 27.4 µM (inactive) | 45.6 µM (inactive) | – | 81.3 µM (inactive) | 33.2 µM (inactive) | > 100 µM (inactive) | 82 µM (inactive) | 23.9 µM | 17.3 µM (inactive) | 19.4 µM (inactive) | 26.4 µM (inactive) | 51.6 µM (inactive) | > 100 µM (inactive) | 0.61 µM (active) | 43.5 µM (inactive) | 28.8 µM (inactive) | 60.4 µM (inactive)
11 | COc1ccccc1-c1nc(O)c2ccccc2n1 | > 100 µM (inactive) | > 100 µM (inactive) | > 100 µM (inactive) | > 100 µM (inactive) | > 100 µM (inactive) | > 100 µM (inactive) | – | > 100 µM (inactive) | – | > 100 µM (inactive) | > 100 µM | > 100 µM (inactive) | > 100 µM (inactive) | > 100 µM (inactive) | > 100 µM (inactive) | > 100 µM (inactive) | > 100 µM (inactive) | > 100 µM (inactive) | – | > 100 µM (inactive)
